Data set [1] has as its system Mus musculus. Put plainly: Anticonvulsant activity in ip dosed albino CF1 mouse assessed as protection against maximal electroshock-induced seizures. It is filed as functional. For orientation: The maximal electroshock test induces tonic seizures with an electrical stimulus.
Data set [2] relates to Mus musculus. Put plainly: Anticonvulsant activity in ip dosed albino CF1 mouse assessed as protection against subcutaneous metrazol-induced seizures. The data set is classed as functional.
Data set [3] in a line: Neurotoxicity in ip dosed albino CF1 mouse. It is filed as toxicity, organism-based. Conditions: in vivo.
The subject of data set [4] is Mus musculus. Nature of the data set: Anticonvulsant activity in ip dosed albino CF1 mouse assessed as protection against maximal electroshock-induced seizures measured as time to peak effect. It is filed as functional.
Data set [5] relates to Mus musculus. Put plainly: Anticonvulsant activity in ip dosed albino CF1 mouse assessed as protection against 6 Hz current-induced seizures. The data set is classed as functional.
In data set [6] the test system is Mus musculus. Nature of the data set: Neurotoxicity in ip dosed 6 Hz current-induced seizure albino CF1 mouse model. The data set is classed as toxicity, organism-based. Conditions: in vivo.
Data set [7] in a line: Protective index, ratio of TD50 for neurotoxicity in ip dosed albino CF1 mouse to ED50 for anticonvulsant activity in ip dosed 6 Hz current-induced seizure albino CF1 mouse model. The data set is classed as toxicity, organism-based. Conditions: in vivo, read-out: Ratio TD50/ED50.
Data set [8] has as its system Mus musculus. Put plainly: Anticonvulsant activity in ip dosed albino CF1 mouse assessed as protection against 6 Hz current-induced seizures measured as time to peak effect. It is filed as functional.
Data set [9] concerns Mus musculus. Put plainly: Anticonvulsant activity in ip dosed corneal kindled albino CF1 mouse seizure model. The data set is classed as functional.
The test system of data set [10] is Mus musculus. Nature of the data set: Anticonvulsant activity in ip dosed corneal kindled albino CF1 mouse seizure model assessed as time to peak effect. It is filed as functional.
In data set [11] the test system is Rattus norvegicus. Put plainly: Anticonvulsant activity in ip dosed Sprague-Dawley rat assessed as protection against maximal electroshock-induced seizures. It is filed as functional.
Data set [12] has as its system Rattus norvegicus. Nature of the data set: Anticonvulsant activity in ip dosed Sprague-Dawley rat assessed as protection against subcutaneous metrazol-induced seizures. It is filed as functional.
The nature of data set [13]: Protective index, ratio of TD50 for neurotoxicity in ip dosed Sprague-Dawley rat to ED50 for anticonvulsant activity in ip dosed MES Sprague-Dawley rat model. It is filed as toxicity, organism-based. Conditions: in vivo, read-out: Ratio TD50/ED50.
Data set [14] relates to Rattus norvegicus. Nature of the data set: Anticonvulsant activity in ip dosed Sprague-Dawley rat assessed as protection against maximal electroshock-induced seizures measured as time to peak effect. It is filed as functional.
A short description of data set [15]: Neurotoxicity in ip dosed Sprague-Dawley rat measured at 0.25 hr post dose. It is filed as toxicity, organism-based. The note with it: in vivo.
For data set [16], the system named is Rattus norvegicus. Nature of the data set: Anticonvulsant activity in ip dosed Sprague-Dawley rat assessed as protection against subcutaneous metrazol-induced seizures measured at 0.25 hr post dose. The data set is classed as functional.
The test system of data set [17] is Mus musculus. Nature of the data set: Anticonvulsant activity in albino CF1 mouse assessed as protection against maximal electroshock-induced seizures at 100 mg/kg, ip measured after 0.25 hr. It is filed as functional, organism-based. On the set-up: dose 100 mg/kg.
The subject of data set [18] is Mus musculus. Nature of the data set: Anticonvulsant activity in albino CF1 mouse assessed as protection against maximal electroshock-induced seizures at 100 mg/kg, ip measured after 0.5 hr. The data set is classed as functional, organism-based. Set-up: dose 100 mg/kg.
For data set [19], the system named is Mus musculus. Put plainly: Anticonvulsant activity in albino CF1 mouse assessed as protection against maximal electroshock-induced seizures at 100 mg/kg, ip measured after 1 hr. Set-up: dose 100 mg/kg. The data set is classed as functional, organism-based.
Data set [20] has as its system Mus musculus. Nature of the data set: Anticonvulsant activity in albino CF1 mouse assessed as protection against maximal electroshock-induced seizures at 100 mg/kg, ip measured after 4 hrs. On the set-up: dose 100 mg/kg. The data set is classed as functional, organism-based.
The test system of data set [21] is Mus musculus. Put plainly: Anticonvulsant activity in albino CF1 mouse assessed as protection against subcutaneous metrazol-induced seizures at 100 mg/kg, ip measured after 0.5 hr. The data set is classed as functional, organism-based. Set-up: dose 100 mg/kg.
The subject of data set [22] is Mus musculus. Nature of the data set: Anticonvulsant activity in albino CF1 mouse assessed as protection against subcutaneous metrazol-induced seizures at 100 mg/kg, ip measured after 4 hrs. The data set is classed as functional, organism-based. On the set-up: dose 100 mg/kg.
For data set [23], the system named is Mus musculus. Nature of the data set: Neurotoxicity in albino CF1 mouse at 100 mg/kg, ip measured after 0.25 hr. The data set is classed as toxicity, organism-based. On the set-up: dose 100 mg/kg, route intraperitoneal. The note with it: in vivo.
Data set [24] deals with Mus musculus. Put plainly: Neurotoxicity in albino CF1 mouse at 100 mg/kg, ip measured after 0.5 hr. It is filed as toxicity, organism-based. Conditions: in vivo. Set-up: dose 100 mg/kg, route intraperitoneal.
Data set [25] concerns Mus musculus. Nature of the data set: Neurotoxicity in albino CF1 mouse at 100 mg/kg, ip measured after 1 hr. The note with it: in vivo. It is filed as toxicity, organism-based. Set-up: dose 100 mg/kg, route intraperitoneal.
In data set [26] the test system is Mus musculus. Nature of the data set: Neurotoxicity in albino CF1 mouse at 100 mg/kg, ip measured after 4 hrs. Conditions: in vivo. The data set is classed as toxicity, organism-based. On the set-up: dose 100 mg/kg, route intraperitoneal.
For data set [27], the system named is Mus musculus. Nature of the data set: Neurotoxicity in albino CF1 mouse at 300 mg/kg, ip measured after 0.5 hr. The note with it: in vivo. Set-up: dose 300 mg/kg, route intraperitoneal. The data set is classed as toxicity, organism-based.
In data set [28] the test system is Mus musculus. Put plainly: Anticonvulsant activity in albino CF1 mouse assessed as protection against subcutaneous metrazol-induced seizures at 300 mg/kg, ip measured after 0.5 hr. The data set is classed as functional, organism-based. Set-up: dose 300 mg/kg.

Structures are written as SMILES. Calls of active or inactive are those of the source. The rule behind the calls is not given here.

The term ED50 denotes the dose at which the effect has come halfway, by size or by number of responders. Broadly, the TD50 is the dose at which the toxic effect under study appears in half of the subjects. A low value points to greater toxicity. For `CCC1(c2ccccc2)C(=O)NC(=O)NC1=O` [PHENOBARBITAL], the ED50 turned out to be 94 µmol/kg in [1] and 57 µmol/kg in data set [2]. Also, the TD50 in data set [3] came to 297 µmol/kg. Moreover, in [4], the Time worked out at 1 h.
In the case of `CC[C@@H](C(N)=O)N1CCCC1=O`, the ED50 was 114 µmol/kg in data set [5], 252 µmol/kg in data set [6] and 94 µmol/kg in [9]. In addition, the selectivity ratio in data set [7] is more than 25.8. The Time in data set [8] was determined as 1 h; in data set [10], 0.5 h.
Regarding `CCCC(CCC)C(=O)[O-].[Na+]` [VALPROATE SODIUM], the ED50 in data set [11] was 890 µmol/kg; in data set [12], 1420 µmol/kg; in [16], 1420 µmol/kg; in [9], 948 µmol/kg. Also, the selectivity ratio in data set [13] is 2.1. The Time in [14] and in [10] was 0.5 h in each case. The same compound displayed a TD50 at 0.25 h in [15] of 1910 µmol/kg.
For the compound `O=C1NC(=O)[C@@H](c2cccc(C(F)(F)F)c2)N2CCC[C@@H]12`, the outcome in [17], in [18], in data set [19], in data set [20], in [21] and in data set [22] was inactive. For the same compound, the Activity result in data set [23] is given as “Toxic”; in data set [24], “Non-toxic”; in [25] it was “Non-toxic”; in data set [26], “Non-toxic”; in data set [27], “Toxic”. Besides, in data set [28], the outcome was Active.

The values are drawn from ChEMBL document CHEMBL3352057, “Novel fluorinated pyrrolo[1,2-a]pyrazine-2,6-dione derivatives: synthesis and anticonvulsant evaluation in animal models of epilepsy” (Bioorg Med Chem, 2014).
